Experimental data reported in patent US4628104A, “Imidazole ketone derivatives” (G. D. Searle & Co., priority 1985, dated 1986).
In brackets after ≈: the same amount, converted by molar mass. Several values for one entry are separate records, joined by “and”; a condition that tells them apart may be missing. Identical values can stand only once. Counter-ions that a name gives are not always drawn. Like-named read-outs stand apart in the source and are kept apart here.

Columns and labels:
B. fragilis NCTC 10581 = experiment: Anti-anaerobic activity, microtitre plate broth dilution, strain A; assay type: cell-based, Bacteroides fragilis; settings: for MBC / MIC: Bacteroides fragilis, NCTC10581, 48 h; for MBC: read-out: MBC (Minimum Bactericidal Concentration); for MIC: 48 hours at 37° C., anaerobic, read-out: MIC (Minimum Inhibitory Concentration)
B. fragilis NCTC 9343 = experiment: Anti-anaerobic activity, microtitre plate broth dilution, strain B; assay type: cell-based, Bacteroides fragilis; settings: for MBC / MIC: Bacteroides fragilis, NCTC9343, 48 h; for MBC: read-out: MBC (Minimum Bactericidal Concentration); for MIC: read-out: MIC (Minimum Inhibitory Concentration)
B. fragilis NCTC 9344 = experiment: Anti-anaerobic activity, microtitre plate broth dilution, strain C; assay type: cell-based; settings: Bacteroides fragilis, NCTC9344, 48 h; for MBC: 99.9% reduction in viable count, 48 hours, read-out: MBC (Minimum Bactericidal Concentration); for MIC: 48 hours at 37° C., anaerobic, read-out: MIC (Minimum Inhibitory Concentration)
[1] = system: B. fragilis MZ-R ATCC 11295; experiment: Anti-anaerobic activity, microtitre plate broth dilution, strain D; assay type: cell-based, Bacteroides fragilis; settings: for MBC / MIC: Bacteroides fragilis, ATCC11295, 48 h; for MBC: 99.9% reduction in viable count, 48 hours, read-out: MBC (Minimum Bactericidal Concentration); for MIC: read-out: MIC (Minimum Inhibitory Concentration)
B. fragilis WS-1 = experiment: Anti-anaerobic activity, microtitre plate broth dilution, strain E; assay type: cell-based; settings: Bacteroides fragilis, WS1, 48 h, 48 hours at 37° C., read-out: MIC (Minimum Inhibitory Concentration)
[2] = system: Clostridium perfringens NCTC 523; experiment: microbe, parasite or virus in culture; assay type: cell-based; settings: NCTC523
[3] = system: Clostridium perfringens NCTC 8237; experiment: microbe, parasite or virus in culture; assay type: cell-based; settings: NCTC8237, strain G
[4] = system: Fusobacterium necrophorum ATCC 11295; experiment: Anti-anaerobic activity, additional strains, strain J; assay type: cell-based
[5] = system: Peptococcus magnus ATCC 29328; experiment: Anti-anaerobic activity, additional strains, strain K; assay type: cell-based; settings: Finegoldia magna, ATCC29328
[6] = system: Peptococcus prevotti ATCC 9321; experiment: Anti-anaerobic activity, additional strains, strain L; assay type: cell-based
[7] = system: Propionibacterium acnes NCTC 737; experiment: Anti-anaerobic activity, additional strains, strain N; assay type: cell-based; settings: Cutibacterium acnes, NCTC737
[8] = system: Propionibacterium acnes NCTC 7337; experiment: Anti-anaerobic activity, additional strains, strain O; assay type: cell-based; settings: Cutibacterium acnes, NCTC7337
Clostridium difficile CI = experiment: Anti-anaerobic activity, additional strains, strain H; settings: Clostridioides difficile
[9] = system: Campylobacter fetus ATCC 29428; experiment: Anti-anaerobic activity, additional strains, strain I; settings: ATCC29428
[10] = system: Peptostreptococcus anaerobicus ATCC 27337; experiment: Anti-anaerobic activity, additional strains, strain M; settings: ATCC27337
[11] = strain A, 99.9% reduction in viable count, 48 hours
[12] = 99.9% reduction in viable count, 48 hours
[13] = strain D, 48 hours at 37° C., anaerobic
[14] = ATCC11295, strain J, read-out: MIC

Structure (SMILES)	MBC (B. fragilis NCTC 10581; [11])	MIC (B. fragilis NCTC 10581; strain A)	MBC (B. fragilis NCTC 9343; [12])	MIC (B. fragilis NCTC 9343; 48 hours at 37° C., anaerobic)	MBC (B. fragilis NCTC 9344)	MIC (B. fragilis NCTC 9344)	MBC ([1]; strain D)	MIC [1, 13]	MIC (B. fragilis WS-1)	MIC [2]	MIC [3]	MIC [9]	MIC [10]	MIC [4, 14]	MIC ([7]; strain N, read-out: MIC)	also measured
O=C(c1ccc(Cl)cc1Cl)C(Cn1ccnc1)c1ccccc1 (stereo not drawn) [Example 2, 1-(2,4-Dichlorophenyl)-3-(imidazol-1-yl)-2-phenylpropan-1-one]	0.8 µg/mL (≈ 2.32 µM)	0.8 µg/mL (≈ 2.32 µM)	0.8 µg/mL (≈ 2.32 µM)	0.8 µg/mL (≈ 2.32 µM)	0.8 µg/mL (≈ 2.32 µM)	0.8 µg/mL (≈ 2.32 µM)	0.8 µg/mL (≈ 2.32 µM)	0.8 µg/mL (≈ 2.32 µM)	0.8 µg/mL (≈ 2.32 µM)	0.8 µg/mL (≈ 2.32 µM)	0.8 µg/mL (≈ 2.32 µM)	0.8 µg/mL (≈ 2.32 µM)	0.8 µg/mL (≈ 2.32 µM)	–	–	MIC ([4]; ATCC11295): 0.8 µg/mL (≈ 2.32 µM); MIC [5]: 0.8 µg/mL (≈ 2.32 µM); MIC [6]: 0.8 µg/mL (≈ 2.32 µM); MIC [7]: 0.8 µg/mL (≈ 2.32 µM); MIC [8]: 0.8 µg/mL (≈ 2.32 µM); MIC (Clostridium difficile CI): 0.8 µg/mL (≈ 2.32 µM)
O=C(c1cc(Cl)cc(Cl)c1)C(Cn1ccnc1)c1ccccc1 (stereo not drawn) [Example 18, 1-(3,5-Dichlorophenyl)-3-(imidazol-1yl)-2-phenyl propan-1-one]	1.5 µg/mL (≈ 4.34 µM)	0.8 µg/mL (≈ 2.32 µM)	1.5 µg/mL (≈ 4.34 µM)	1.5 µg/mL (≈ 4.34 µM)	0.8 µg/mL (≈ 2.32 µM)	0.8 µg/mL (≈ 2.32 µM)	1.5 µg/mL (≈ 4.34 µM)	0.8 µg/mL (≈ 2.32 µM)	1.5 µg/mL (≈ 4.34 µM)	3.1 µg/mL (≈ 8.98 µM)	3.1 µg/mL (≈ 8.98 µM)	3.1 µg/mL (≈ 8.98 µM)	6.2 µg/mL (≈ 18 µM)	6.2 µg/mL (≈ 18 µM)	6.2 µg/mL (≈ 18 µM)	MIC [5]: 3.1 µg/mL (≈ 8.98 µM); MIC [6]: 3.1 µg/mL (≈ 8.98 µM); MIC [8]: 3.1 µg/mL (≈ 8.98 µM); MIC (Clostridium difficile CI; strain H): 1.5 µg/mL (≈ 4.34 µM)
O=C(c1ccccn1)C(Cn1ccnc1)c1ccccc1 (stereo not drawn) [Example 21, 3-(Imidazol-1-yl)-2-phenyl-1-(2-pyridyl)propan-1-one]	12.5 µg/mL (≈ 45.1 µM)	12.5 µg/mL (≈ 45.1 µM)	25 µg/mL (≈ 90.1 µM)	25 µg/mL (≈ 90.1 µM)	12.5 µg/mL (≈ 45.1 µM)	6.2 µg/mL (≈ 22.4 µM)	6.2 µg/mL (≈ 22.4 µM)	6.2 µg/mL (≈ 22.4 µM)	25 µg/mL (≈ 90.1 µM)	–	–	–	–	–	–	–
O=C(c1cccnc1)C(Cn1cncn1)c1ccccc1 (stereo not drawn) [Example 20, 2-Phenyl-1-(3-pyridyl)-3-(1,2,4-triazol-1-yl)propan-1-one]	–	100 µg/mL (≈ 359 µM)	–	100 µg/mL (≈ 359 µM)	–	100 µg/mL (≈ 359 µM)	–	100 µg/mL (≈ 359 µM)	100 µg/mL (≈ 359 µM)	–	–	–	–	–	–	–
O=C(c1cccnc1)C(Cn1ccnc1)c1ccccc1 (stereo not drawn) [Example 19, 3-(Imidazol-1-yl)-2-phenyl-1-(3-pyridyl)propan-1-one]	50 µg/mL (≈ 180 µM)	12.5 µg/mL (≈ 45.1 µM)	50 µg/mL (≈ 180 µM)	12.5 µg/mL (≈ 45.1 µM)	50 µg/mL (≈ 180 µM)	12.5 µg/mL (≈ 45.1 µM)	50 µg/mL (≈ 180 µM)	12.5 µg/mL (≈ 45.1 µM)	6.2 µg/mL (≈ 22.4 µM)	–	–	–	–	–	–	–
O=C(c1ccc(Cl)cc1Cl)C(Cn1cncn1)c1ccccc1 (stereo not drawn) [Example 23, 1-(2,4-Dichlorophenyl)-2-phenyl-3-(1,2,4-triazol-1-yl) propan-1-one]	0.8 µg/mL (≈ 2.31 µM)	0.8 µg/mL (≈ 2.31 µM)	0.8 µg/mL (≈ 2.31 µM)	0.8 µg/mL (≈ 2.31 µM)	0.8 µg/mL (≈ 2.31 µM)	0.8 µg/mL (≈ 2.31 µM)	0.8 µg/mL (≈ 2.31 µM)	0.8 µg/mL (≈ 2.31 µM)	0.8 µg/mL (≈ 2.31 µM)	–	–	–	–	–	–	–
Cc1ncc([N+](=O)[O-])n1CCO [Metronidazole, reference compound]	0.8 µg/mL (≈ 4.67 µM)	–	0.8 µg/mL (≈ 4.67 µM)	0.8 µg/mL (≈ 4.67 µM)	–	–	–	–	–	0.08 µg/mL (≈ 0.467 µM)	–	10 µg/mL (≈ 58.4 µM)	0.3 µg/mL (≈ 1.75 µM)	10 µg/mL (≈ 58.4 µM)	10 µg/mL (≈ 58.4 µM)	MBC (B. fragilis NCTC 10581): 1.2 µg/mL (≈ 7.01 µM); MBC (Minimum Bactericidal Concentration) (B. fragilis NCTC 10581; [11]): 1.2 µg/mL and 0.6 µg/mL; MBC (Minimum Bactericidal Concentration) (B. fragilis NCTC 9343; [12]): 1.2 µg/mL and 0.6 µg/mL; MIC (Minimum Inhibitory Concentration) (B. fragilis NCTC 9343; 48 hours at 37° C., anaerobic): 0.6 µg/mL and 1.2 µg/mL; MIC [1]: 10 µg/mL (≈ 58.4 µM); MIC (Minimum Inhibitory Concentration) [1, 13]: 10.9 µg/mL and 10.0 µg/mL and 10 µg/mL; MIC ([5]; strain K, read-out: MIC): 0.6 µg/mL (≈ 3.51 µM); MIC ([8]; strain O, read-out: MIC): 10 µg/mL (≈ 58.4 µM)
O=C(Cc1ccccc1)C(Cn1ccnc1)c1ccccc1 (stereo not drawn) [Example 25, 1,3-Diphenyl-4-(imidazol-1-yl)butan-2-one]	–	25 µg/mL (≈ 86.1 µM)	–	25 µg/mL (≈ 86.1 µM)	–	25 µg/mL (≈ 86.1 µM)	–	12.5 µg/mL (≈ 43 µM)	25 µg/mL (≈ 86.1 µM)	0.8 µg/mL (≈ 2.76 µM)	0.8 µg/mL (≈ 2.76 µM)	25 µg/mL (≈ 86.1 µM)	1.5 µg/mL (≈ 5.17 µM)	100 µg/mL (≈ 344 µM)	50 µg/mL (≈ 172 µM)	MIC ([5]; strain K, read-out: MIC): 6.2 µg/mL (≈ 21.4 µM); MIC [6]: 0.8 µg/mL (≈ 2.76 µM); MIC (Clostridium difficile CI; strain H): 25 µg/mL (≈ 86.1 µM)
Cc1ccc(C(Cn2cncn2)C(=O)c2ccc(Cl)cc2Cl)cc1 (stereo not drawn) [Example 16, 1-(2,4-Dichlorophenyl)-2-(4-methylphenyl)-3-(1,2,4-triazol-1-yl)propan-1-one hydrochloride]	3.1 µg/mL	3.1 µg/mL	3.1 µg/mL	3.1 µg/mL	3.1 µg/mL	3.1 µg/mL	15 µg/mL	0.8 µg/mL	1.5 µg/mL	–	–	–	–	–	–	–
CCCCCCCC(=O)C(Cn1ccnc1)c1ccc(C)cc1 (stereo not drawn) [Example 17, 1-(Imidazol-1-yl)-2-(4-methylphenyl)decan-3-one hydrochloride]	100 µg/mL	12.5 µg/mL	100 µg/mL	12.5 µg/mL	–	–	100 µg/mL	3.1 µg/mL	12.5 µg/mL	–	–	–	–	–	–	–
Cc1ccc(C(Cn2ccnc2)C(=O)c2ccc(Cl)cc2Cl)cc1 (stereo not drawn) [Example 15, 1-(2,4-Dichlorophenyl)-3-(imidazol-1-yl)-2-(4-methylphenyl) propan-1-one]	0.8 µg/mL (≈ 2.23 µM)	0.8 µg/mL (≈ 2.23 µM)	0.8 µg/mL (≈ 2.23 µM)	0.8 µg/mL (≈ 2.23 µM)	0.8 µg/mL (≈ 2.23 µM)	0.8 µg/mL (≈ 2.23 µM)	0.8 µg/mL (≈ 2.23 µM)	0.8 µg/mL (≈ 2.23 µM)	0.8 µg/mL (≈ 2.23 µM)	0.3 µg/mL (≈ 0.835 µM)	0.6 µg/mL (≈ 1.67 µM)	–	–	0.3 µg/mL (≈ 0.835 µM)	0.6 µg/mL (≈ 1.67 µM)	MIC ([8]; strain O, read-out: MIC): 0.1 µg/mL (≈ 0.278 µM)
CC(C)(C)C(Cn1ccnc1)C(=O)c1ccc(Cl)cc1Cl (stereo not drawn) [Example 22, 1-(2,4-Dichlorophenyl)-3,3-dimethyl-2-(imidazol-1-ylmethyl)butan-1-one]	–	50 µg/mL (≈ 154 µM)	–	50 µg/mL (≈ 154 µM)	–	50 µg/mL (≈ 154 µM)	–	50 µg/mL (≈ 154 µM)	100 µg/mL (≈ 307 µM)	–	–	–	–	–	–	–
CSc1nccn1CC(C(=O)c1ccc(Cl)cc1Cl)c1ccccc1 (stereo not drawn) [Example 24, 1-(2,4-Dichlorophenyl)-2-phenyl-3-(2-thiomethylimidazol-1-yl)propan-1-one]	100 µg/mL (≈ 256 µM)	25 µg/mL (≈ 63.9 µM)	100 µg/mL (≈ 256 µM)	25 µg/mL (≈ 63.9 µM)	100 µg/mL (≈ 256 µM)	25 µg/mL (≈ 63.9 µM)	100 µg/mL (≈ 256 µM)	25 µg/mL (≈ 63.9 µM)	50 µg/mL (≈ 128 µM)	–	–	–	–	–	–	–
